{"source": "patent US9695155B2", "about": "“Herbicidal substituted pyrimidinyloxy benzene compounds” (E. I. DU PONT DE NEMOURS AND COMPANY, priority 2013, dated 2017)", "assay_in_all_cases": "Test E preemergence", "key": {"lambsquarters": {"tested_on": "lambsquarters", "assay_type": "in vivo, Chenopodium album", "settings": "for Lambsquarters plant response rating: scale 0 to 100 (0 no effect, 100 complete control)", "text": "(§1) Seeds of plant species selected from corn (Zea mays), soybean (Glycine max), velvetleaf (Abutilon theophrasti), lambsquarters (Chenopodium album), wild poinsettia (Euphorbia heterophylla), palmer pigweed (Amaranthus palmeri), waterhemp (common waterhemp, Amaranthus rudis), surinam grass (Brachiaria decumbens), large (Lg) crabgrass (Digitaria sanguinalis), Brazilian crabgrass (Digitaria horizontalis), fall panicum (Panicum dichotomiflorum), giant foxtail (Setaria faberii), green foxtail (Setaria viridis), goosegrass (Eleusine indica), johnsongrass (Sorghum halepense), ragweed (common ragweed, Ambrosia elatior), barnyardgrass (Echinochloa crus-galli), sandbur (southern sandbur, Cenchrus echinatus), arrowleaf sida (Sida rhombifolia), Italian ryegrass (Lolium multiflorum), dayflower (Virginia (VA) dayflower, Commelina virginica), field bindweed (Convolvulus arvensis), morningglory (Ipomoea coccinea), nightshade (eastern black nightshade, Solanum ptycanthum), kochia (Kochia scoparia), yellow nutsedge (Cyperus esculentus), cocklebur (common cocklebur, Xanthium strumarium), smartweed (ladysthumb smartweed, and hairy beggarticks (Bidens pilosa), were planted into a silt loam soil and treated preemergence with test chemicals formulated in a non-phytotoxic solvent mixture which included a surfactant.\n(§2) At the same time, plants from these crop and weed species and also horseweed (Canada horseweed, Conyza canadensis), waterhemp_RES1, (ALS & Triazine resistant common waterhemp, Amaranthus rudis), and waterhemp_RES2, (ALS & HPPD resistant common waterhemp, Amaranthus rudis) were planted in pots containing Redi-Earth® planting medium (Scotts Company, 14111 Scottslawn Road, Marysville, Ohio 43041) comprising spaghnum peat moss, vermiculite, wetting agent and starter nutrients were treated with postemergence applications of test chemicals formulated in the same manner. Plants ranged in height from 2 to 18 cm for postemergence treatments (1- to 4-leaf stage). Treated plants and controls were maintained in a greenhouse for 14 to 21 days, after which time all species were compared to controls and visually evaluated. Plant response ratings, summarized in Table E, are based on a scale of 0 to 100 where 0 is no effect and 100 is complete control. A dash (-) response means no test result."}, "wild poinsettia": {"tested_on": "wild poinsettia", "assay_type": "in vivo, Euphorbia heterophylla", "settings": "for Poinsettia, Wild plant response rating: scale 0 to 100 (0 no effect, 100 complete control)", "text": "as §1, §2"}, "waterhemp": {"tested_on": "waterhemp", "assay_type": "in vivo, Amaranthus rudis", "settings": "for Waterhemp plant response rating: scale 0 to 100 (0 no effect, 100 complete control)", "text": "as §1, §2"}, "Brazilian crabgrass": {"tested_on": "Brazilian crabgrass", "assay_type": "in vivo, Digitaria horizontalis", "settings": "for Crabgrass, Brazil plant response rating: scale 0 to 100 (0 no effect, 100 complete control)", "text": "as §1, §2"}, "goosegrass": {"tested_on": "goosegrass", "assay_type": "in vivo, Eleusine indica", "settings": "for Goosegrass plant response rating: scale 0 to 100 (0 no effect, 100 complete control)", "text": "as §1, §2"}, "field bindweed": {"tested_on": "field bindweed", "assay_type": "in vivo, Convolvulus arvensis", "settings": "for Field Bindweed plant response rating: scale 0 to 100 (0 no effect, 100 complete control)", "text": "as §1, §2"}, "kochia": {"tested_on": "kochia", "assay_type": "in vivo, Kochia scoparia", "settings": "for Kochia plant response rating: scale 0 to 100 (0 no effect, 100 complete control)", "text": "as §1, §2"}, "yellow nutsedge": {"tested_on": "yellow nutsedge", "assay_type": "in vivo, Cyperus esculentus", "settings": "for Nutsedge, Yellow plant response rating: scale 0 to 100 (0 no effect, 100 complete control)", "text": "as §1, §2"}, "hairy beggarticks": {"tested_on": "hairy beggarticks", "assay_type": "in vivo, Bidens pilosa", "settings": "for Beggarticks plant response rating: scale 0 to 100 (0 no effect, 100 complete control)", "text": "as §1, §2"}, "[1]": {"settings": "8 g ai/ha, scale 0 to 100, 0 is no effect, 100 is complete control"}, "[2]": {"settings": "125 g ai/ha, scale 0 to 100, 0 no effect, 100 complete control"}, "[3]": {"settings": "Preemergence, 62 g ai/ha, scale 0 to 100, 0 no effect, 100 complete control"}, "[4]": {"settings": "preemergence, 125 g ai/ha, scale 0 to 100, 0 no effect, 100 complete control"}, "[5]": {"settings": "250 g ai/ha, scale 0 to 100, 0 no effect, 100 complete control"}}, "data": [{"smiles": "Clc1cnc(Oc2ccccc2-n2cc(Br)cn2)nc1", "note": "[Compound 7, 2-[2-(4-bromo-1H-pyrazol-1-yl)phenoxy]-5-chloropyrimidine]", "values": [{"measurement": "Plant response rating, Lambsquarters", "setting": "lambsquarters; [1]", "value": 0}, {"measurement": "Lambsquarters plant response rating", "setting": "lambsquarters; 16 g ai/ha", "value": 0}, {"measurement": "Lambsquarters plant response rating", "setting": "lambsquarters; 31 g ai/ha", "value": 75}, {"measurement": "Lambsquarters plant response rating", "setting": "lambsquarters; 62 g ai/ha", "value": 98}, {"measurement": "Plant response rating, Lambsquarters", "setting": "lambsquarters; [2]", "value": 100}, {"measurement": "Plant response rating, Poinsettia, Wild", "setting": "wild poinsettia; [1]", "value": 0}, {"measurement": "Poinsettia, Wild plant response rating", "setting": "wild poinsettia; 16 g ai/ha", "value": 0}, {"measurement": "Poinsettia, Wild plant response rating", "setting": "wild poinsettia; 31 g ai/ha", "value": 0}, {"measurement": "Plant response rating, Poinsettia, Wild", "setting": "wild poinsettia; [2]", "value": 0}, {"measurement": "Plant response rating, Waterhemp", "setting": "waterhemp; [1]", "value": 95}, {"measurement": "Waterhemp plant response rating", "setting": "waterhemp; 16 g ai/ha", "value": 100}, {"measurement": "Waterhemp plant response rating", "setting": "waterhemp; 31 g ai/ha", "value": 100}, {"measurement": "Waterhemp plant response rating", "setting": "waterhemp; 62 g ai/ha", "value": 100}, {"measurement": "Plant response rating, Waterhemp", "setting": "waterhemp; [2]", "value": 100}, {"measurement": "Plant response rating, Crabgrass, Brazil", "setting": "Brazilian crabgrass; [1]", "value": 0}, {"measurement": "Crabgrass, Brazil plant response rating", "setting": "Brazilian crabgrass; 16 g ai/ha", "value": 0}, {"measurement": "Crabgrass, Brazil plant response rating", "setting": "Brazilian crabgrass; 31 g ai/ha", "value": 80}, {"measurement": "Crabgrass, Brazil plant response rating", "setting": "Brazilian crabgrass; 62 g ai/ha", "value": 100}, {"measurement": "Plant response rating, Crabgrass, Brazil", "setting": "Brazilian crabgrass; [2]", "value": 100}, {"measurement": "Plant response rating, Goosegrass", "setting": "goosegrass; [1]", "value": 0}, {"measurement": "Goosegrass plant response rating", "setting": "goosegrass; 16 g ai/ha", "value": 0}, {"measurement": "Goosegrass plant response rating", "setting": "goosegrass; 31 g ai/ha", "value": 35}, {"measurement": "Goosegrass plant response rating", "setting": "goosegrass; 62 g ai/ha", "value": 40}, {"measurement": "Plant response rating, Goosegrass", "setting": "goosegrass; [2]", "value": 75}, {"measurement": "Plant response rating, Field Bindweed", "setting": "field bindweed; [1]", "value": 0}, {"measurement": "Field Bindweed plant response rating", "setting": "field bindweed; 16 g ai/ha", "value": 0}, {"measurement": "Field Bindweed plant response rating", "setting": "field bindweed; 31 g ai/ha", "value": 0}, {"measurement": "Field Bindweed plant response rating", "setting": "field bindweed; 62 g ai/ha", "value": 0}, {"measurement": "Plant response rating, Field Bindweed", "setting": "field bindweed; [2]", "value": 0}, {"measurement": "Plant response rating, Kochia", "setting": "kochia; [1]", "value": 0}, {"measurement": "Kochia plant response rating", "setting": "kochia; 16 g ai/ha", "value": 0}, {"measurement": "Kochia plant response rating", "setting": "kochia; 31 g ai/ha", "value": 0}, {"measurement": "Kochia plant response rating", "setting": "kochia; 62 g ai/ha", "value": 50}, {"measurement": "Plant response rating, Kochia", "setting": "kochia; [2]", "value": 95}, {"measurement": "Plant response rating, Nutsedge, Yellow", "setting": "yellow nutsedge; [1]", "value": 0}, {"measurement": "Nutsedge, Yellow plant response rating", "setting": "yellow nutsedge; 16 g ai/ha", "value": 0}, {"measurement": "Nutsedge, Yellow plant response rating", "setting": "yellow nutsedge; 31 g ai/ha", "value": 0}, {"measurement": "Nutsedge, Yellow plant response rating", "setting": "yellow nutsedge; 62 g ai/ha", "value": 0}, {"measurement": "Plant response rating, Nutsedge, Yellow", "setting": "yellow nutsedge; [2]", "value": 0}, {"measurement": "Plant response rating, Beggarticks", "setting": "hairy beggarticks; 8 g ai/ha, preemergence, scale 0 to 100, 0 is no effect, 100 is complete control", "value": 0}, {"measurement": "Beggarticks plant response rating", "setting": "hairy beggarticks; 16 g ai/ha, preemergence", "value": 0}, {"measurement": "Beggarticks plant response rating", "setting": "hairy beggarticks; 31 g ai/ha, preemergence", "value": 0}, {"measurement": "Plant response rating, Beggarticks", "setting": "hairy beggarticks; [3]", "value": 0}, {"measurement": "Plant response rating, Beggarticks", "setting": "hairy beggarticks; [4]", "value": 0}]}, {"smiles": "FC(F)(F)c1cnn(-c2ccccc2Oc2ncc(Cl)cn2)c1", "note": "[Compound 16]", "values": [{"measurement": "Lambsquarters plant response rating", "setting": "lambsquarters; 16 g ai/ha", "value": 50}, {"measurement": "Lambsquarters plant response rating", "setting": "lambsquarters; 31 g ai/ha", "value": 80}, {"measurement": "Lambsquarters plant response rating", "setting": "lambsquarters; 62 g ai/ha", "value": 98}, {"measurement": "Plant response rating, Lambsquarters", "setting": "lambsquarters; [2]", "value": 98}, {"measurement": "Plant response rating, Lambsquarters", "setting": "lambsquarters; [5]", "value": 98}, {"measurement": "Poinsettia, Wild plant response rating", "setting": "wild poinsettia; 16 g ai/ha", "value": 0}, {"measurement": "Poinsettia, Wild plant response rating", "setting": "wild poinsettia; 31 g ai/ha", "value": 0}, {"measurement": "Poinsettia, Wild plant response rating", "setting": "wild poinsettia; 62 g ai/ha", "value": 50}, {"measurement": "Plant response rating, Poinsettia, Wild", "setting": "wild poinsettia; [2]", "value": 50}, {"measurement": "Plant response rating, Poinsettia, Wild", "setting": "wild poinsettia; [5]", "value": 100}, {"measurement": "Waterhemp plant response rating", "setting": "waterhemp; 16 g ai/ha", "value": 100}, {"measurement": "Waterhemp plant response rating", "setting": "waterhemp; 31 g ai/ha", "value": 100}, {"measurement": "Waterhemp plant response rating", "setting": "waterhemp; 62 g ai/ha", "value": 100}, {"measurement": "Plant response rating, Waterhemp", "setting": "waterhemp; [2]", "value": 100}, {"measurement": "Plant response rating, Waterhemp", "setting": "waterhemp; [5]", "value": 100}, {"measurement": "Crabgrass, Brazil plant response rating", "setting": "Brazilian crabgrass; 62 g ai/ha", "value": 100}, {"measurement": "Plant response rating, Crabgrass, Brazil", "setting": "Brazilian crabgrass; [2]", "value": 100}, {"measurement": "Plant response rating, Crabgrass, Brazil", "setting": "Brazilian crabgrass; [5]", "value": 100}, {"measurement": "Goosegrass plant response rating", "setting": "goosegrass; 16 g ai/ha", "value": 0}, {"measurement": "Goosegrass plant response rating", "setting": "goosegrass; 31 g ai/ha", "value": 35}, {"measurement": "Goosegrass plant response rating", "setting": "goosegrass; 62 g ai/ha", "value": 50}, {"measurement": "Plant response rating, Goosegrass", "setting": "goosegrass; [2]", "value": 75}, {"measurement": "Plant response rating, Goosegrass", "setting": "goosegrass; [5]", "value": 95}, {"measurement": "Field Bindweed plant response rating", "setting": "field bindweed; 16 g ai/ha", "value": 0}, {"measurement": "Field Bindweed plant response rating", "setting": "field bindweed; 31 g ai/ha", "value": 0}, {"measurement": "Field Bindweed plant response rating", "setting": "field bindweed; 62 g ai/ha", "value": 0}, {"measurement": "Plant response rating, Field Bindweed", "setting": "field bindweed; [2]", "value": 30}, {"measurement": "Plant response rating, Field Bindweed", "setting": "field bindweed; [5]", "value": 60}, {"measurement": "Kochia plant response rating", "setting": "kochia; 16 g ai/ha", "value": 0}, {"measurement": "Kochia plant response rating", "setting": "kochia; 31 g ai/ha", "value": 0}, {"measurement": "Kochia plant response rating", "setting": "kochia; 62 g ai/ha", "value": 65}, {"measurement": "Plant response rating, Kochia", "setting": "kochia; [2]", "value": 100}, {"measurement": "Plant response rating, Kochia", "setting": "kochia; [5]", "value": 100}, {"measurement": "Nutsedge, Yellow plant response rating", "setting": "yellow nutsedge; 16 g ai/ha", "value": 0}, {"measurement": "Nutsedge, Yellow plant response rating", "setting": "yellow nutsedge; 31 g ai/ha", "value": 0}, {"measurement": "Nutsedge, Yellow plant response rating", "setting": "yellow nutsedge; 62 g ai/ha", "value": 0}, {"measurement": "Plant response rating, Nutsedge, Yellow", "setting": "yellow nutsedge; [2]", "value": 35}, {"measurement": "Plant response rating, Nutsedge, Yellow", "setting": "yellow nutsedge; [5]", "value": 35}, {"measurement": "Beggarticks plant response rating", "setting": "hairy beggarticks; 16 g ai/ha, preemergence", "value": 0}, {"measurement": "Beggarticks plant response rating", "setting": "hairy beggarticks; 31 g ai/ha, preemergence", "value": 0}, {"measurement": "Plant response rating, Beggarticks", "setting": "hairy beggarticks; [3]", "value": 0}, {"measurement": "Plant response rating, Beggarticks", "setting": "hairy beggarticks; [4]", "value": 0}, {"measurement": "Plant response rating, Beggarticks", "setting": "hairy beggarticks; preemergence, 250 g ai/ha, scale 0 to 100, 0 no effect, 100 complete control", "value": 0}]}]}
